Laboratory results reported in patent publication US5633219A, “5H-pyrrolo(3',4':5,6)(1,4)dithiin o(2,3-C)(1,2,5)thiadiazole-5,7(6H)-dione, compositions containing them and their use as antimicrobial and marine antifouling agents” (The Dow Chemical Company, priority 1996, dated 1997).
Values after ≈ are worked out from the molar mass of the structure shown. Where two headings read alike, the source gives them in different places.

Legend:
[1] = test system: Candida albicans (Ca); test: Minimum inhibitory concentration, malt yeast agar, Candida albicans; type: cell-based, Candida albicans ATCC 10231; settings: malt yeast agar, 30° C, 48 hours (yeast); read-out: Minimum Inhibitory Concentration, Ca
Description: (§1) Malt yeast agar is prepared by adding 3 g yeast extract and 45 g malt agar per liter of deionized water. The specific agar is dispensed in 30 mL aliquots into 25×200 mm test tubes, capped and autoclaved for 15 minutes at 115° C.
(§2) The inoculation with the yeast and fungi is accomplished as follows. Cultures of yeast and fungi are incubated for seven days on malt yeast agar at 30° C. These cultures are used to prepare suspensions by the following procedure. A suspension of each organism is prepared by adding 10 mL of sterile saline and 10 microliters of octylphenoxy polyethoxy ethanol to the agar slant of yeast or fungi. The sterile saline/octylphenoxy polyethoxy ethanol solution is then agitated with a sterile swab to suspend the microorganism grown on the slant. Each resulting suspension is diluted into sterile saline (1 part suspension to 9 parts sterile saline). Aliquots of these dilutions are placed in individual wells of Steer's Replicator and petri plates inoculated as previously described. The petri plates are incubated at 30° C. and read after 48 hours for yeast and 72 hours for fungi.

[2] = test system: Escherichia coli (Ec); test: Minimum inhibitory concentration, nutrient agar, Escherichia coli; settings: 48 h
[3] = test system: Salmonella choleraesuis (Sc); test: Minimum inhibitory concentration, nutrient agar, Salmonella choleraesuis; type: cell-based, Salmonella choleraesuis ATCC 10708; settings: Salmonella enterica, 30° C, 48 hours
[4] = test system: Bacillus subtilis (Bs); test: Minimum inhibitory concentration, nutrient agar, Bacillus subtilis; settings: 48 h
[5] = test system: Klebsiella pneumoniae (Kp); test: Minimum inhibitory concentration, nutrient agar, Klebsiella pneumoniae; settings: 48 h
[6] = test system: Proteus vulgaris (Pv); test: Minimum inhibitory concentration, nutrient agar, Proteus vulgaris; settings: 48 h
[7] = test system: Trichoderma viride (Tv); test: Minimum inhibitory concentration, malt yeast agar, Trichoderma viride; type: cell-based, Trichoderma viride ATCC 8678; settings: malt yeast agar, 30° C, 72 hours (fungi); read-out: Minimum Inhibitory Concentration, Tv
Description: as §1, §2

[8] = test system: Aureobasidium pullulan (Ap); test: Minimum inhibitory concentration, malt yeast agar, Aureobasidium pullulan; type: cell-based, Aureobasidium pullulan ATCC 16622; settings: 30° C, 48 hours for yeast and 72 hours for fungi
Description: as §1, §2

[9] = test system: Saccharomyces cerevisiae (Sc); test: Minimum inhibitory concentration, malt yeast agar, Saccharomyces cerevisiae; type: cell-based, Saccharomyces cerevisiae ATCC 4105; settings: malt yeast agar, 30° C, 48 hours (yeast), read-out: Minimum Inhibitory Concentration, Sc
Description: as §1, §2

[10] = test system: marine organisms; test: Marine antifouling rating of coated test panels exposed under a marine surface; settings: scale 10 (completely free of growth) to 0 (completely covered), 1.0 g compound in 9.0 g latex binder
Description: Test panels are prepared from clear, rigid polyvinyl chloride film that is 0.381×10^-3 m thick and has one textured surface. The test panels are 0.1524 m by 0.1524 m squares that have 0.00635 m holes punched at corners on 0.127 m centers. A 0.102 square template, with a 0.067 m diameter hole at the center, is attached to the center of the textured surface of the test panels.
A candidate marine antifoulant compound (1.0 g) is stirred into a resinous latex binder (9.0 g). A portion of the compound/binder mixture (1.5 g) is added to the center of the test panel and uniformly spread over the circular area inside the template.
Water is added dropwise as needed to properly spread the compound/binder mixture. The template prevents the compound/binder mixture from spreading beyond the uncovered area. The test panel is allowed to sit for between 10 to 30 minutes until the edge of the spread compound/binder mixture has dried. The template is then removed. The test panel is then allowed to dry for 8 to 12 hours at room temperature.
Two test panels are prepared for each candidate marine antifoulant compound. Two control test panels are also prepared by only treating with the resinous latex binder. One test panel of each candidate marine […] compound is attached over a white background to the topside of an exposure support apparatus. The second test panel is attached over a black background to the underside of the exposure support apparatus. The exposure support apparatus is placed horizontally 0.0254 m under a marine surface with the white background topside facing up. […]
After being removed from the exposure support apparatus, each test panel is inspected and rated for marine organism growth on both the treated and untreated areas of the test panel. The marine organisms present on the treated and untreated areas are noted. The presence of algae spores and bacterial slime are noted but not included in rating each test panel. The test panels are rated on a scale from 10 (representing completely free of marine organism growth) to 0 (representing completely covered with marine organism growth).

[11] = test system: Fusarium oxysporum (Of); test: Minimum inhibitory concentration, malt yeast agar, Fusarium oxysporum; type: cell-based, Fusarium oxysporum ATCC 48112; settings: 30° C, 72 hours (fungi), read-out: Minimum Inhibitory Concentration, Fo
Description: as §1, §2

[12] = test system: Pseudomonas aeruginosa (PRD-10); test: Minimum inhibitory concentration, nutrient agar, Pseudomonas aeruginosa PRD-10; settings: 48 h
[13] = test system: Aspergillus niger (An); test: Minimum inhibitory concentration, malt yeast agar, Aspergillus niger; type: cell-based, Aspergillus niger ATCC 16404; settings: 30° C, 72 hours (fungi)
Description: as §1, §2

[14] = test system: Enterobacter aerogenes (Ea); test: Minimum inhibitory concentration, nutrient agar, Enterobacter aerogenes; settings: Klebsiella aerogenes, 48 h
[15] = test system: Pseudomonas aeruginosa (Pa); test: Minimum inhibitory concentration, nutrient agar, Pseudomonas aeruginosa; type: cell-based, Pseudomonas aeruginosa ATCC 10145; settings: 30° C, 48 hours
[16] = test system: Staphylococcus aureus (Sa); test: Minimum inhibitory concentration, nutrient agar, Staphylococcus aureus; settings: 48 h
[17] = test system: Penicillium chrysogenum (PC); test: Minimum inhibitory concentration, malt yeast agar, Penicillium chrysogenum; type: cell-based, Penicillium chrysogenum ATCC 9480; settings: malt yeast agar, 30° C, 72 hours (fungi); read-out: Minimum Inhibitory Concentration, Pc
Description: as §1, §2

## CCCn1c(=O)c2sc3nsnc3sc=2c1=O [IV, 6-n-Propyl-5H-Pyrrolo(3',4':5,6)(1,4)dithiino-(2,3-C)(1,2,5)thiadiazole-5,7(6H) -dione]
[1]
  MIC: < 1 µg/mL
[2]; pH 6.8, read-out: Minimum inhibitory Concentration, Ec
  MIC: > 500 µg/mL
[2]; pH 8.2, read-out: Minimum inhibitory Concentration, Ec
  MIC: > 500 µg/mL
[3]; pH 6.8, nutrient agar
  MIC: 500 µg/mL (≈ 1750 µM)
[3]; pH 8.2, nutrient agar
  MIC: > 500 µg/mL
[4]; pH 6.8, read-out: Minimum inhibitory Concentration, Bs
  MIC: < 10 µg/mL
[4]; pH 8.2, read-out: Minimum inhibitory Concentration, Bs
  MIC: 250 µg/mL (≈ 876 µM)
[5]; pH 6.8, read-out: Minimum inhibitory Concentration, Kp
  MIC: > 500 µg/mL
[5]; pH 8.2, read-out: Minimum inhibitory Concentration, Kp
  MIC: > 500 µg/mL
[6]; pH 6.8, read-out: Minimum inhibitory Concentration, Pv
  MIC: 250 µg/mL (≈ 876 µM)
[6]; pH 8.2, read-out: Minimum inhibitory Concentration, Pv
  MIC: > 500 µg/mL
[7]
  MIC: < 1 µg/mL
[8]
  MIC: < 1 µg/mL
[9]
  MIC: < 1 µg/mL
[10]; 6 weeks
  Marine Antifouling Rating, Bottom Panel: 9
  Marine Antifouling Rating, Top Panel: 9
[10]; 10 weeks
  Marine Antifouling Rating, Bottom Panel: 7
  Marine Antifouling Rating, Top Panel: 7
[10]; 16 weeks
  Marine Antifouling Rating, Bottom Panel: 7
  Marine Antifouling Rating, Top Panel: 7
[11]
  MIC: < 1 µg/mL
[12]; pH 6.8, read-out: Minimum inhibitory Concentration, PRD
  MIC: > 500 µg/mL
[12]; pH 8.2, read-out: Minimum inhibitory Concentration, PRD
  MIC: > 500 µg/mL
[13]
  MIC: < 1 µg/mL
[14]; pH 6.8, read-out: Minimum inhibitory Concentration, Ea
  MIC: > 500 µg/mL
[14]; pH 8.2, read-out: Minimum inhibitory Concentration, Ea
  MIC: > 500 µg/mL
[15]; pH 6.8, nutrient agar
  MIC: > 500 µg/mL
[15]; pH 8.2, nutrient agar
  MIC: > 500 µg/mL
[16]; pH 6.8, read-out: Minimum inhibitory Concentration, Sa
  MIC: 50 µg/mL (≈ 175 µM)
[16]; pH 8.2, read-out: Minimum inhibitory Concentration, Sa
  MIC: 50 µg/mL (≈ 175 µM)
[17]
  MIC: < 1 µg/mL
